Measurements published in US7279444B2, “Substituted benzoylpyrazoles” (Bayer CropScience GmbH, priority 1999, dated 2007).
Marks after values point to notes of the source that are not given here.

Experiment: log P by HPLC on reversed-phase column (C 18), acidic range
Format: physicochemical
Method: Temperature: 43° C. […] The log P values given in Table 3 were determined in accordance with EEC Directive 79/831 Annex V.A8 by HPLC (High Performance Liquid Chromatography) on a reversed-phase column (C 18). Temperature: 43° C. […] The log P values given in Tables 4 were determined in accordance with EEC Directive 79/831 Annex V.A8 by HPLC (High Performance Liquid Chromatography) on a reversed-phase column (C 18). Temperature: 43° C.

Row | Structure (SMILES) | logP
1 | CCn1ncc(C(=O)c2ccc(C(F)(F)F)cc2Cn2nc(SC)sc2=O)c1O [ID-7] | logP = 2.98^a)
2 | CCn1ncc(C(=O)c2ccc(Cl)c(Cn3nc(N(C)C)n(C)c3=O)c2Cl)c1O [Example 28] | logP = 1.77^a)
3 | CCn1ncc(C(=O)c2ccc(Cl)c(Cn3nc(SC)n(C)c3=O)c2F)c1O [Example 62] | logP = 1.99^a)
4 | CCOc1nn(Cc2cc(C(F)(F)F)ccc2C(=O)c2cnn(CC)c2OCc2ccc(Cl)c(Cl)c2)c(=O)n1C [ID-23] | logP = 4.26^a)
5 | CCOc1nn(Cc2c(Cl)ccc(C(=O)c3c(C)nn(CC)c3O)c2Cl)c(=O)n1C [Example 42] | logP = 2.02^a)
6 | CCn1ncc(C(=O)c2ccc(C(F)(F)F)cc2Cn2nc(SC)n(C)c2=O)c1OC(C)C [ID-32] | logP = 3.00^a)
7 | CCN1CCN(Cc2c(Cl)ccc(C(=O)c3c(C)nn(CC)c3O)c2Cl)C1=O [ID-57] | logP = 1.79^a)
8 | CCn1ncc(C(=O)c2ccc(Cl)c(Cn3nc(SC)n(C4CC4)c3=O)c2Cl)c1O [Example 35] | (IB)logP = 2.27^a)
9 | C=CCOc1c(C(=O)c2ccc(C(F)(F)F)cc2Cn2nc(SC)n(C)c2=O)cnn1CC [ID-33] | logP = 2.89^a)
10 | Cc1nn(C(C)(C)C)c(O)c1C(=O)c1ccc(Cl)c(CN2CCN(C)C2=O)c1Cl [ID-53] | logP = 2.79^a)
11 | CCOc1nn(Cc2cc(C(F)(F)F)ccc2C(=O)c2cnn(CC)c2OC)c(=O)n1C [ID-13] | logP = 2.74^a)
12 | CCOc1nn(Cc2cc(C(F)(F)F)ccc2C(=O)c2cnn(CC)c2OCc2ccccc2)c(=O)n1C [ID-17] | logP = 3.45^a)
13 | CCOc1nn(Cc2c(Cl)ccc(C(=O)c3c(C)nn(C(C)(C)C)c3O)c2Cl)c(=O)n1C [Example 47] | logP = 3.44^a)
14 | CCOc1c(C(=O)c2ccc(C(F)(F)F)cc2Cn2nc(OCC)n(C)c2=O)cnn1CC [ID-14] | logP = 2.82^a)
15 | CCN1CCN(Cc2c(Cl)ccc(C(=O)c3c(C)nn(C)c3O)c2Cl)C1=O [ID-55] | logP = 1.57^a)
16 | CCn1ncc(C(=O)c2ccc(C(F)(F)F)cc2Cn2nc(SC)n(C)c2=O)c1OCc1ccc(C)cc1 [ID-35] | logP = 3.71^a)
17 | CCOc1nn(Cc2cc(C(F)(F)F)ccc2C(=O)c2cnn(CC)c2OS(C)(=O)=O)c(=O)n1C [ID-11] | logP = 3.25^a)
18 | CSc1nn(Cc2c(Cl)ccc(C(=O)c3cnn(C)c3O)c2Cl)c(=O)n1C [Example 55] | logP = 1.67^a)
19 | CCn1ncc(C(=O)c2ccc(C(F)(F)F)cc2Cn2nc(SC)n(C)c2=O)c1OCc1ccc(F)cc1 [ID-38] | logP = 3.41^a)
20 | CCn1ncc(C(=O)c2ccc(Cl)c(Cn3nc(C)n(C4CC4)c3=O)c2Cl)c1O [Example 36] | (IB)logP = 1.64^a)
21 | CCOc1nn(Cc2cc(C(F)(F)F)ccc2C(=O)c2cnn(CC)c2OCc2ccc([N+](=O)[O-])cc2)c(=O)n1C [ID-25] | logP = 3.33^a)
22 | CSc1nn(Cc2c(Cl)ccc(C(=O)c3c(C)nn(C(C)(C)C)c3O)c2Cl)c(=O)n1C [Example 46] | logP = 3.30^a)
23 | CCn1ncc(C(=O)c2ccc(F)cc2Cn2nc(N(C)C)n(C)c2=O)c1O [Example 8] | logP = 1.61^a)
24 | Cc1nn(C(C)(C)C)c(O)c1C(=O)c1ccc(Cl)c(CN2CCCN(C)C2=O)c1Cl [ID-6] | logP = 3.01^a)

Row | Structure (SMILES) | logP
25 | CCn1ncc(C(=O)c2ccc(F)c(Cn3nc(C)n(C)c3=O)c2Cl)c1O [Example 69] | logP = 1.76^a)
26 | CCn1ncc(C(=O)c2ccc(C(F)(F)F)cc2Cn2nc(SC)n(C)c2=O)c1OCc1ccc(Cl)c(Cl)c1 [ID-40] | logP = 4.17^a)
27 | CCn1ncc(C(=O)c2ccc(C(F)(F)F)cc2Cn2nc(SC)n(C)c2=O)c1OCC(=O)c1ccc(Cl)cc1 [ID-47] | logP = 3.64^a)
28 | CCn1ncc(C(=O)c2ccc(F)c(Cn3nc(SC)n(C)c3=O)c2Cl)c1O [Example 70] | logP = 1.76^a)
29 | CCn1ncc(C(=O)c2ccc(Cl)c(Cn3nc(OCC(F)(F)F)n(C4CC4)c3=O)c2Cl)c1O [Example 34] | (IB)logP = 2.65^a)
30 | CCn1ncc(C(=O)c2ccc(C(F)(F)F)cc2Cn2nc(SC)n(C)c2=O)c1OCc1ccc(Br)cc1 [ID-36] | logP = 3.89^a)
31 | CCn1nc(C)c(C(=O)c2ccc(Cl)c(Cn3nc(SC)n(C)c3=O)c2Cl)c1O [Example 41] | logP = 1.91^a)
32 | CCOc1nn(Cc2cc(C(F)(F)F)ccc2C(=O)c2cnn(CC)c2OCc2ccc(C(F)(F)F)cc2)c(=O)n1C [ID-26] | logP = 3.98^a)
33 | CCOc1nn(Cc2cc(C(F)(F)F)ccc2C(=O)c2cnn(CC)c2OCc2ccc(Cl)cc2)c(=O)n1C [ID-22] | logP = 3.85^a)
34 | CCn1ncc(C(=O)c2ccc(Cl)c(Cn3nc(OCC(F)(F)F)n(C)c3=O)c2Cl)c1O [Example 23] | logP = 2.33^a)
35 | CSc1nn(Cc2c(Cl)ccc(C(=O)c3c(C)nn(C)c3O)c2Cl)c(=O)n1C [Example 51] | logP = 1.66^a)
36 | CCn1ncc(C(=O)c2ccc(C(F)(F)F)cc2Cn2nc(SC)n(C)c2=O)c1OCc1ccccc1 [ID-34] | logP = 3.37^a)
37 | CCOc1nn(Cc2cc(C(F)(F)F)ccc2C(=O)c2cnn(CC)c2OCc2ccc(Br)cc2)c(=O)n1C [ID-19] | logP = 3.97^a)
38 | CCn1ncc(C(=O)c2ccc(C(F)(F)F)cc2Cn2nc(SC(C)C)n(C)c2=O)c1O [Example 6] | logP = 2.90^a)
39 | CCn1ncc(C(=O)c2ccc(Cl)c(Cn3nc4n(c3=O)CCCC4)c2Cl)c1O [Example 30] | logP = 1.55^a)
40 | CCn1ncc(C(=O)c2ccc(C(F)(F)F)cc2Cn2nc(SC)n(C)c2=O)c1OCc1cccc(C(F)(F)F)c1 [ID-44] | logP = 3.85^a)
41 | Cc1nn(C)c(O)c1C(=O)c1ccc(Cl)c(CN2CCCN(C)C2=O)c1Cl [ID-4] | logP = 1.50^a)
42 | CCn1ncc(C(=O)c2ccc(S(C)(=O)=O)cc2Cn2nc(C(F)(F)F)n(C)c2=O)c1O [Example 67] | logP = 1.60^a)
43 | CCn1ncc(C(=O)c2ccc(Cn3nc(SC)n(C)c3=O)c(OC)c2[N+](=O)[O-])c1O [Example 60] | logP = 1.92^a)
44 | CCn1ncc(C(=O)c2ccc(Br)cc2-n2nc(C(F)(F)F)n(C)c2=O)c1O [Example 27] | logP = 2.55^a)
45 | CCn1nc(C)c(C(=O)c2ccc(Cl)c(Cn3nc(OC)n(C)c3=O)c2Cl)c1O [Example 43] | logP = 1.71^a)
46 | CCn1ncc(C(=O)c2ccc(C(F)(F)F)cc2Cn2nc(SC)n(C)c2=O)c1OCc1ccc(C#N)cc1 [ID-37] | logP =3.06^a)
47 | CCn1nc(C)c(C(=O)c2ccc(Cl)c(Cn3nc(Br)n(C)c3=O)c2Cl)c1O [Example 44] | logP = 1.81^a)

Results, then the compound that gave them:

Row | logP | Structure (SMILES)
48 | logP = 2.16^a) | CCOC(=O)c1ccc(Br)cc1Cn1nc2n(c1=O)CCC2 [IV-68]
49 | logP = 3.23^a) | CCOC(=O)c1ccc(Br)c(Cn2nc(C(F)(F)F)n(C)c2=O)c1 [IV-40]
50 | logP = 1.53^a) | CCOC(=O)c1ccc(S(C)(=O)=O)cc1CN1C(=O)CCC1=O [IV-33]
51 | logP = 2.82^a) | CCOC(=O)c1ccc([N+](=O)[O-])cc1Cn1nc(SC)n(C)c1=O [IV-46]
52 | logP = 2.07^a) | COC(=O)c1ccc(Cl)c(CN2CCCN(C)C2=O)c1Cl [IV-24]
53 | logP = 2.83^a) | CCOC(=O)c1ccc(Cl)cc1Cn1nc(SC)n(C)c1=O [IV-81]
54 | logP = 2.55^a) | COC(=O)c1ccc(Cl)c(Cn2nc(C3CC3)n(C3CC3)c2=O)c1Cl [IV-5]
55 | logP = 2.50^a) | CCOC(=O)c1ccc(F)cc1Cn1nc(OC)n(C2CC2)c1=O [IV-97]
56 | logP = 2.68^a) | CCOc1nn(Cc2cc(I)ccc2C(=O)OC)c(=O)n1C [IV-116]
57 | logP = 2.94^a) | COC(=O)c1ccc(Cl)c(CN2C(=O)c3ccccc3S2(=O)=O)c1Cl [IV-25]
58 | logP = 2.41^a) | CCOC(=O)c1ccc(Br)cc1Cn1nc2n(c1=O)CCCC2 [IV-69]
59 | logP = 3.34^a) | CCOC(=O)c1ccc(Br)cc1Cn1nc(OC(C)C)n(C)c1=O [IV-65]
60 | logP = 2.65^a) | COC(=O)c1ccc(C(F)(F)F)cc1Cn1nc(SC)n(C)c1=O [IV-118]
61 | logP = 3.05^a) | COC(=O)c1ccc(Cl)c(Cn2nc(OCC(F)(F)F)n(C3CC3)c2=O)c1Cl [IV-18]
62 | logP = 3.54^a) | CCCOc1nn(Cc2cc(C(F)(F)F)ccc2C(=O)OCC)c(=O)n1C [IV-71]
63 | logP = 2.42^a) | CCOC(=O)c1ccc([N+](=O)[O-])cc1Cn1nc(OCC)n(C2CC2)c1=O [IV-45]

Row | logP | Structure (SMILES)
64 | logP = 2.06^a) | CCOC(=O)c1ccc(Br)c(Cn2nc(C)n(C)c2=O)c1 [IV-38]
65 | logP = 2.64^a) | CCOC(=O)c1ccc(Br)c(Cn2nc(Br)n(C)c2=O)c1 [IV-39]
66 | logP = 2.58^a) | CCOC(=O)c1ccc(C(F)(F)F)cc1Cn1c(=O)n(C)c(=O)n1C [IV-113]
67 | logP = 3.02^a) | CCOC(=O)c1ccc(C(F)(F)F)cc1Cn1nc(SC)n(C)c1=O [IV-49]
68 | logP = 2.45^a) | CCOC(=O)c1ccc(F)cc1Cn1nc(SC)n(C)c1=O [IV-37]
69 | logP = 2.38^a) | CCOc1nn(Cc2c(Cl)ccc(C(=O)OC)c2Cl)c(=O)n1C [IV-4]
70 | logP = 1.55^a) | COC(=O)c1ccc(Cl)c(Cn2ncn(C)c2=O)c1Cl [IV-10]
71 | logP = 3.38^a) | CCCOc1nn(Cc2cc(Br)ccc2C(=O)OCC)c(=O)n1C [IV-66]
72 | logP = 2.73^a) | COC(=O)c1ccc(Cl)c(Cn2nc(OC(C)C)n(C)c2=O)c1Cl [IV-7]
73 | logP = 2.74^a) | CCOc1nn(Cc2cc(C(F)(F)F)ccc2C(=O)OC)c(=O)n1C [IV-117]
74 | logP = 2.88^a) | CCOC(=O)c1ccc(C(F)(F)F)cc1Cn1nc(COC)n(C2CC2)c1=O [IV-77]
75 | logP = 2.41^a) | CCOC(=O)c1ccc(F)c(Cn2nc(Br)n(C)c2=O)c1 [IV-36]
76 | logP = 3.08^a) | COC(=O)c1ccc(Cl)c(Cn2nc(OC(C)C)n(C3CC3)c2=O)c1Cl [IV-17]
77 | logP = 3.38^a) | CCOC(=O)c1ccc(C(F)(F)F)cc1Cn1nc(CC)n(OCC)c1=O [IV-48]
78 | logP = 1.59^a) | CCOc1nn(Cc2cc(S(C)(=O)=O)ccc2C(=O)OC)c(=O)n1C [IV-115]
